Measured values as given in patent US20250197389A1, “NITROGEN-CONTAINING HETEROCYCLIC COMPOUND” (SHANGHAI SHIJIANG BIOTECHNOLOGY CO., LTD, priority 2022, published 2025).
pIC50: −log10 of the molar value.

Key:
[1] = system: mPTP-active Daoy cell; assay: Inhibitory effect on mPTP-active Daoy cell (Promega CellTiter-Glo, intracellular ATP); assay type: cell-based, human; conditions: Daoy cell transfected with empty virus vector without PPIF shRNA
[2] = system: mPTP-inactive Daoy cell; assay: Inhibitory effect on mPTP-inactive Daoy cell (PPIF shRNA; Promega CellTiter-Glo, intracellular ATP); assay type: cell-based, human; conditions: Daoy cell transfected with virus vector carrying PPIF shRNA
Text: The activity of mitochondria permeability transition pore (mPTP) was regulated by the PPIF protein. […] PPIF protein activity was restricted by the expression level of PPIF protein in cell.

Row | SMILES | pIC50 ([1]; Homo sapiens, Daoy) | pIC50 ([2]; Homo sapiens, Daoy) | pIC50 [1] | pIC50 [2]
1 | COc1ccc2c(c1OC)C(C1CCCC1)N1CCc3cc4c(cc3C1=C2CCc1ccccc1)OCO4 (centres unmarked) [AB35448] | 5.45 | 5.76 | – | –
2 | CCCCCOc1c(OC)ccc2c1C(C(Cl)(Cl)Cl)N1CCc3cc4c(cc3C1=C2)OCO4 (centres unmarked) [AB35505] | 5.91 | 6.38 | – | –
3 | COc1ccc2c(c1OC)C(C)N1CCc3cc4c(cc3C1=C2CCCc1ccccc1)OCO4 (centres unmarked) [AB35493] | 5.48 | 5.99 | – | –
4 | COc1ccc2c(c1OCCCCCCCl)C(C(Cl)(Cl)Cl)N1CCc3cc4c(cc3C1=C2)OCO4 (centres unmarked) [AB35475] | 5.58 | 5.91 | – | –
5 | COc1ccc2c(c1OCCCCOc1ccccc1)C(C)N1CCc3cc4c(cc3C1=C2)OCO4 (centres unmarked) [AB31881] | 5.36 | 5.67 | – | –
6 | COc1ccc2c(c1OCCCCCCNC(=O)OC(C)(C)C)C(C)N1CCc3cc4c(cc3C1=C2)OCO4 (centres unmarked) [AB35415] | 5.32 | 5.65 | – | –
7 | COc1ccc2c(c1OCCCCCCNC(=O)OC(C)(C)C)C(C(Cl)(Cl)Cl)N1CCc3cc4c(cc3C1=C2)OCO4 (centres unmarked) [AB35407] | 5.55 | 5.87 | – | –
8 | COc1ccc2c(c1OCCCCCl)C(C(Cl)(Cl)Cl)N1CCc3cc4c(cc3C1=C2)OCO4 (centres unmarked) [AB35496] | 4.91 | 5.28 | – | –
9 | COc1c(OCCCCl)ccc2c1C(C1CCCC1)N1CCc3cc4c(cc3C1=C2)OCO4 (centres unmarked) [AB36474] | 5.37 | 5.86 | – | –
10 | COc1ccc2c(c1N1CCC(NC(=O)OC(C)(C)C)CC1)C(C(Cl)(Cl)Cl)N1CCc3cc4c(cc3C1=C2)OCO4 (centres unmarked) [AB35465] | 5.27 | 5.57 | – | –
11 | COc1ccc2c(c1OC)C(C(Cl)(Cl)Cl)N1CCc3cc4c(cc3C1=C2CCCc1ccccc1)OCCO4 (centres unmarked) [AB35484] | 5.51 | 6.01 | – | –
12 | COc1ccc2c(c1OC)C(C(Cl)(Cl)Cl)N1CCc3cc4c(cc3C1=C2CCCCCCCl)OCO4 (centres unmarked) [AB35524] | 5.39 | 5.72 | – | –
13 | COc1ccc2c(c1N1CCC(C)CC1)CN1CCc3cc4c(cc3C1=C2)OCO4 [AB35545] | 6.28 | 6.70 | – | –
14 | COc1ccc2c(c1OCCCCCCBr)C(C)N1CCc3cc4c(cc3C1=C2)OCO4 (centres unmarked) [AB31897] | 5.46 | 5.80 | – | –
15 | COc1ccc2c(c1OCCCCCCCl)C(C)N1CCc3cc4c(cc3C1=C2)OCO4 (centres unmarked) [AB31888] | 5.26 | 5.57 | – | –
16 | [2H]C1c2c(ccc(OC)c2OC)C=C2c3cc4c(cc3CC([2H])([2H])N21)OCO4 (centres unmarked) [AB36477] | 5.60 | 5.88 | – | –
17 | COc1ccc2c(c1N1CCC(C(F)(F)F)CC1)C(C(Cl)(Cl)Cl)N1CCc3cc4c(cc3C1=C2)OCO4 (centres unmarked) [AB35514] | 5.47 | 5.88 | – | –
18 | CCCCC1=C2c3cc4c(cc3CCN2C(C(Cl)(Cl)Cl)c2c1ccc(OC)c2OC)OCO4 (centres unmarked) [AB35502] | 5.21 | 5.53 | – | –
19 | COc1ccc2c(c1OCCCCl)CN1CCc3cc4c(cc3C1=C2)OCO4 [AB35543] | 5.91 | 6.36 | – | –
20 | COc1ccc2c(c1OC)C(C)N1CCc3cc4c(cc3C1=C2CCCCc1ccccc1)OCO4 (centres unmarked) [AB35468] | 5.64 | 5.98 | – | –
21 | COc1ccc2c(c1OCCCF)CN1CCc3cc4c(cc3C1=C2)OCO4 [AB35590] | 5.34 | 5.85 | – | –
22 | COc1ccc2c(c1OC)C(C1CCCC1)N1CCc3cc4c(cc3C1=C2CCCc1ccccc1)OCO4 (centres unmarked) [AB35436] | 5.32 | 5.64 | – | –

Row | SMILES | pIC50 ([1]; Homo sapiens, Daoy) | pIC50 ([2]; Homo sapiens, Daoy) | pIC50 [1] | pIC50 [2]
23 | COc1ccc2c(c1OCCCCl)C(C1CCCC1)N1CCc3cc4c(cc3C1=C2)OCO4 (centres unmarked) [AB35434] | 5.28 | 5.61 | – | –
24 | CCC1=C2c3cc4c(cc3CCN2C(C(Cl)(Cl)Cl)c2c1ccc(OC)c2OC)OCO4 (centres unmarked) [AB35488] | 5.28 | 5.69 | – | –
25 | COc1ccc2c(c1OCCCCl)C(C1CCCCC1)N1CCc3cc4c(cc3C1=C2)OCO4 (centres unmarked) [AB35491] | 5.22 | 5.58 | – | –
26 | COc1ccc2c(c1OC)C(C(Cl)(Cl)Cl)N1CCc3cc4c(cc3C1=C2CCc1ccccc1)OCO4 (centres unmarked) [AB35444] | 5.16 | 5.48 | – | –
27 | CCCCCCCCC1=C2c3cc4c(cc3CCN2C(C(Cl)(Cl)Cl)c2c1ccc(OC)c2OC)OCO4 (centres unmarked) [AB35497] | 5.48 | 5.94 | – | –
28 | COc1ccc2c(c1OCCCBr)CN1CCc3cc4c(cc3C1=C2)OCO4 [AB35544] | 6.14 | 6.70 | – | –
29 | COc1ccc2c(c1OC)C(C(Cl)(Cl)Cl)N1CCc3cc4c(cc3C1=C2CCCc1ccccc1)OCO4 (centres unmarked) [AB35417] | 5.44 | 5.79 | – | –
30 | CCCC1=C2c3cc4c(cc3CCN2C(C2CCCC2)c2c1ccc(OC)c2OC)OCO4 (centres unmarked) [AB35504] | 4.98 | 5.37 | – | –
31 | COc1ccc2c(c1N1CCC(C)CC1)C(C(Cl)(Cl)Cl)N1CCc3cc4c(cc3C1=C2)OCO4 (centres unmarked) [AB35453] | 5.91 | 6.37 | – | –
32 | CCCCN1CCN(c2c(OC)ccc3c2C(C(Cl)(Cl)Cl)N2CCc4cc5c(cc4C2=C3)OCO5)CC1 (centres unmarked) [AB35445] | 4.92 | 5.20 | – | –
33 | COc1ccc2c(c1OC)C(C)N1CCc3cc4c(cc3C1=C2CCc1ccccc1)OCO4 (centres unmarked) [AB35498] | 5.20 | 5.51 | – | –
34 | COc1ccc2c(c1OC)CN1CCc3cc4c(cc3C1=C2Cc1ccc(OC(F)(F)F)cc1)OCO4 [AB31866] | 5.17 | 5.47 | – | –
35 | COc1ccc2c(c1OC)C(C(Cl)(Cl)Cl)N1CCc3cc4c(cc3C1=C2CCCCc1ccccc1)OCO4 (centres unmarked) [AB35469] | 5.62 | 5.95 | – | –
36 | COc1ccc2c(c1OCCCCCCBr)C(C1CCCC1)N1CCc3cc4c(cc3C1=C2)OCO4 (centres unmarked) [AB35458] | 5.41 | 5.74 | – | –
37 | COc1ccc2c(c1OCCCCOc1ccccc1)C(C(Cl)(Cl)Cl)N1CCc3cc4c(cc3C1=C2)OCO4 (centres unmarked) [AB35476] | 5.63 | 5.97 | – | –
38 | CC1c2c(ccc3c2OCO3)C(CCCc2ccccc2)=C2c3cc4c(cc3CCN21)OCO4 (centres unmarked) [AB35427] | 5.49 | 5.83 | – | –
39 | COc1ccc2c(c1OCCCF)C(C)N1CCc3cc4c(cc3C1=C2)OCO4 (centres unmarked) [AB35485] | 4.79 | 5.28 | – | –
40 | CCCC1c2c(ccc3c2OCO3)C=C2c3cc4c(cc3CCN21)OCO4 (centres unmarked) [AB36416] | 5.42 | 5.84 | – | –
41 | COc1ccc2c(c1OC/C=C(\C)CCC=C(C)C)C(C(Cl)(Cl)Cl)N1CCc3cc4c(cc3C1=C2)OCO4 (centres unmarked) [AB35405] | 5.57 | 5.92 | – | –
42 | COc1ccc2c(c1OC)C(C1CCC1)N1CCc3cc4c(cc3C1=C2)OCO4 (centres unmarked) [AB36447] | 5.17 | 5.58 | – | –
43 | COc1ccc2c(c1OC)C(C)N1CCc3cc4c(cc3C1=C2CCCc1ccccc1)OCO4 (centres unmarked) [AB35411] | – | – | 5.45 | 5.75
44 | COc1ccc2c(c1OC)C(C1CCCC1)N1CCc3cc4c(cc3C1=C2CCCCCCBr)OCO4 (centres unmarked) [AB35523] | 5.49 | 5.86 | – | –

Row | SMILES | pIC50 ([1]; Homo sapiens, Daoy) | pIC50 ([2]; Homo sapiens, Daoy) | pIC50 [1] | pIC50 [2]
45 | [2H]C1([2H])c2c(ccc(OC)c2OC)C=C2c3cc4c(cc3CCN21)OCO4 [AB36434] | 5.62 | 5.95 | – | –
46 | CCCCCCC1=C2c3cc4c(cc3CCN2C(C2CCCC2)c2c1ccc(OC)c2OC)OCO4 (centres unmarked) [AB35489] | 5.77 | 6.10 | – | –
47 | COc1ccc2c(c1OCCCN1CCCCC1)C(C)N1CCc3cc4c(cc3C1=C2)OCO4 (centres unmarked) [AB35442] | 4.97 | 4.94 | – | –
48 | COc1ccc2c(c1OC)C(C1CCCC1)N1CCc3cc4c(cc3C1=C2Cc1ccc(C(C)C)cc1)OCO4 (centres unmarked) [AB35460] | 5.71 | 6.11 | – | –
49 | COc1ccc2c(c1OCCCCl)C(C)N1CCc3cc4c(cc3C1=C2)OCO4 (centres unmarked) [AB35456] | 5.24 | 5.56 | – | –
50 | COc1ccc2c(c1N1CCN(C)CC1)C(C1CCCC1)N1CCc3cc4c(cc3C1=C2)OCO4 (centres unmarked) [AB35510] | – | – | 6.08 | 6.54
51 | C1=C2c3cc4c(cc3CCN2C(C2CCCC2)c2c1ccc1c2OCO1)OCO4 (centres unmarked) [AB36423] | 5.17 | 5.69 | – | –
52 | CCCOc1c(OC)ccc2c1CN1CCc3cc4c(cc3C1=C2)OCO4 [AB35536] | 5.89 | 6.40 | – | –
53 | COc1ccc2c(c1OCCCCNC(=O)OC(C)(C)C)C(C(Cl)(Cl)Cl)N1CCc3cc4c(cc3C1=C2)OCO4 (centres unmarked) [AB35423] | – | – | 5.32 | 5.63
54 | COc1ccc2c(c1N1CCN(C)CC1)C(C(Cl)(Cl)Cl)N1CCc3cc4c(cc3C1=C2)OCO4 (centres unmarked) [AB35518] | 5.08 | 5.51 | – | –
55 | COc1ccc2c(c1OCCCBr)C(C1CCCC1)N1CCc3cc4c(cc3C1=C2)OCO4 (centres unmarked) [AB35430] | 5.29 | 5.62 | – | –
56 | COc1ccc2c(c1OCCCBr)C(C)N1CCc3cc4c(cc3C1=C2)OCO4 (centres unmarked) [AB31887] | 5.19 | 5.50 | – | –
57 | COc1ccc2c(c1OCCCF)C(C(Cl)(Cl)Cl)N1CCc3cc4c(cc3C1=C2)OCO4 (centres unmarked) [AB35478] | 5.42 | 5.82 | – | –
58 | COc1ccc2c(c1OCCCBr)C(C(Cl)(Cl)Cl)N1CCc3cc4c(cc3C1=C2)OCO4 (centres unmarked) [AB35466] | 5.66 | 6.04 | – | –
59 | ClC(Cl)(Cl)C1c2c(ccc3c2OCO3)C(CCCc2ccccc2)=C2c3cc4c(cc3CCN21)OCO4 (centres unmarked) [AB35428] | 4.89 | 5.25 | – | –
60 | CCC1=C2c3cc4c(cc3CCN2C(C(Cl)(Cl)Cl)c2c1ccc1c2OCO1)OCO4 (centres unmarked) [AB36426] | 4.51 | 4.46 | – | –
61 | CCOc1c(OC)ccc2c1C(C(Cl)(Cl)Cl)N1CCc3cc4c(cc3C1=C2)OCO4 (centres unmarked) [AB35499] | 5.19 | 5.50 | – | –
62 | C=CCOc1c(OC)ccc2c1C(C(Cl)(Cl)Cl)N1CCc3cc4c(cc3C1=C2)OCO4 (centres unmarked) [AB35534] | 5.41 | 5.89 | – | –
63 | CCCCCC1=C2c3cc4c(cc3CCN2C(C(Cl)(Cl)Cl)c2c1ccc(OC)c2OC)OCO4 (centres unmarked) [AB35418] | 5.49 | 5.81 | – | –
64 | COc1ccc2c(c1OCCCCCCNC(=O)OC(C)(C)C)C(C1CCCC1)N1CCc3cc4c(cc3C1=C2)OCO4 (centres unmarked) [AB35455] | 5.45 | 5.83 | – | –
